Where “and” joins values, the source holds several entries; their conditions need not be identical. Identical values can stand only once. Counter-ions that a name gives are not always drawn.
The compounds below were run against Intestinal-type alkaline phosphatase (Homo sapiens, UniProt P09923) (assay: inhibition of intestinal alkaline phosphatase – biochemical, luminescence, dose response (AID 1017)). Conditions: not given.
Chain of Intestinal-type alkaline phosphatase (P09923 whole entry, looked up): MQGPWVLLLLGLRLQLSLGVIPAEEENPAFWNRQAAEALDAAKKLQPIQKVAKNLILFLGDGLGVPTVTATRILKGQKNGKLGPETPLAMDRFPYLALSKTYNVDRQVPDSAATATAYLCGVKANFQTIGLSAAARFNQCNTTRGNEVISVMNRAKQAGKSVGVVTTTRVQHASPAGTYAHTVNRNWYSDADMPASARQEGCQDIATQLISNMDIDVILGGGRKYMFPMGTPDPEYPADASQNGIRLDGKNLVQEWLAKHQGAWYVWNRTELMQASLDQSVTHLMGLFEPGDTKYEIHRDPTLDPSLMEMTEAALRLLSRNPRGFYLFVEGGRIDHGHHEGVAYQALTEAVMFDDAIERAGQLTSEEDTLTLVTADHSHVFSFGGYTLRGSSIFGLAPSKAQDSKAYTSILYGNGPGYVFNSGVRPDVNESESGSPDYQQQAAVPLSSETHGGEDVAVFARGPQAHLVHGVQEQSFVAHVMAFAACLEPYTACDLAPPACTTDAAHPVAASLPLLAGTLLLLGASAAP

Compound	IC50
O=C(CSc1nnc(-c2ccccc2)[nH]1)c1ccc(O)c(O)c1	5.32 µM
CCOC(=O)c1cc(-c2ccc3c(c2)OCCO3)n[nH]1	> 100 µM
COc1ccc(-c2[nH]nc3oc(=O)cc(C)c23)cc1	> 100 µM
COC(=O)c1cc(-c2ccc(Br)cc2)n[nH]1	> 100 µM
COC(=O)c1cc(-c2ccc(C)cc2C)n[nH]1	> 100 µM
O=C1c2ccccc2C(=O)C1c1nc2ccccc2[nH]1	> 100 µM
O=C1c2c(Cl)c(Cl)c(Cl)c(Cl)c2C(=O)N1c1nnc(CCc2ccccc2)[nH]1	> 100 µM
COC(=O)c1cc(-c2ccc(Cl)cc2Cl)n[nH]1	> 100 µM
COc1ccc(OC)c(S(=O)(=O)Nc2cnc3ccccc3c2)c1	> 100 µM
O=C(O)c1ccc2c(c1)C(=O)N(c1nc(-c3cccnc3)n[nH]1)C2=O [1,3-dioxo-2-(5-pyridin-3-yl-1H-1,2,4-triazol-3-yl)isoindole-5-carboxylic acid]	40.7 µM
COc1ccc(-n2nnnc2SCC(=O)c2ccc(O)c(O)c2)cc1 [1-(3,4-dihydroxyphenyl)-2-(1-(4-methoxyphenyl)-1H-tetrazol-5-ylthio)ethanone]	4.35 µM
O=C(Cn1ccnc1)c1ccc(O)c(O)c1 [1-(3,4-dihydroxyphenyl)-2-(1-imidazolyl)ethanone;hydrochloride]	30.2 µM and 18.5 µM
CCc1nccn1CC(=O)c1ccc(O)c(O)c1 [1-(3,4-dihydroxyphenyl)-2-(2-ethyl-1-imidazolyl)ethanone;hydrochloride]	> 100 µM
Cc1nc2ccccc2n1CC(=O)c1ccc(O)c(O)c1 [1-(3,4-dihydroxyphenyl)-2-(2-methyl-1-benzimidazolyl)ethanone;hydrochloride]	> 100 µM
Cc1cc(C)nc(SCC(=O)c2ccc(O)c(O)c2)n1 [1-(3,4-dihydroxyphenyl)-2-(4,6-dimethylpyrimidin-2-ylthio)ethanone]	49.5 µM
Cc1cnn(CC(=O)c2ccc(O)c(O)c2)c1 [1-(3,4-dihydroxyphenyl)-2-(4-methyl-1H-pyrazol-1-yl)ethanone]	53.3 µM
Cn1c(SCC(=O)c2ccc(O)c(O)c2)nnc1-c1ccccc1 [1-(3,4-dihydroxyphenyl)-2-(4-methyl-5-phenyl-4H-1,2,4-triazol-3-ylthio)ethanone]	> 100 µM
O=C(CNc1ccncc1)c1ccc(O)c(O)c1 [1-(3,4-dihydroxyphenyl)-2-(4-pyridylamino)ethanone]	> 100 µM
Cc1ccc(-n2nnnc2SCC(=O)c2ccc(O)c(O)c2)cc1 [1-(3,4-dihydroxyphenyl)-2-[1-(4-methylphenyl)tetrazol-5-yl]sulfanylethanone]	3.36 µM

Compound	IC50
C=CCn1c(SCC(=O)c2ccc(O)c(O)c2)nnc1-c1cccnc1 [1-(3,4-dihydroxyphenyl)-2-[(4-prop-2-enyl-5-pyridin-3-yl-1,2,4-triazol-3-yl)sulfanyl]ethanone]	40.4 µM
C=CCn1c(SCC(=O)c2ccc(O)c(O)c2)nnc1-c1ccccc1 [1-(3,4-dihydroxyphenyl)-2-[(5-phenyl-4-prop-2-enyl-1,2,4-triazol-3-yl)sulfanyl]ethanone]	10.1 µM
COc1ccccc1-c1nc(SCC(=O)c2ccc(O)c(O)c2)n[nH]1 [1-(3,4-dihydroxyphenyl)-2-[[5-(2-methoxyphenyl)-1H-1,2,4-triazol-3-yl]sulfanyl]ethanone]	> 3.13 µM
C=CCn1c(SCC(=O)c2ccc(O)c(O)c2)nnc1-c1ccccc1OC [1-(3,4-dihydroxyphenyl)-2-[[5-(2-methoxyphenyl)-4-prop-2-enyl-1,2,4-triazol-3-yl]sulfanyl]ethanone]	> 6.25 µM and 20.7 µM
C=CCn1c(SCC(=O)c2ccc(O)c(O)c2)nnc1-c1cccc(OC)c1 [1-(3,4-dihydroxyphenyl)-2-[[5-(3-methoxyphenyl)-4-prop-2-enyl-1,2,4-triazol-3-yl]sulfanyl]ethanone]	13.1 µM
O=C(CSc1nnc(-c2ccccc2)[nH]1)c1ccc(O)cc1O [1-[2,4-bis(oxidanyl)phenyl]-2-[(5-phenyl-1H-1,2,4-triazol-3-yl)sulfanyl]ethanone]	> 100 µM
O=C(CSc1nnc(-c2ccccc2Cl)[nH]1)c1ccc(O)c(O)c1 [1-[3,4-bis(oxidanyl)phenyl]-2-[[5-(2-chlorophenyl)-1H-1,2,4-triazol-3-yl]sulfanyl]ethanone]	> 100 µM
COc1ccc(OC)c(S(=O)(=O)Nc2cccnc2)c1 [2,5-Dimethoxy-N-(pyridin-3-yl)benzenesulfonamide]	> 100 µM
O=C1c2ccccc2C(=O)N1c1nncs1 [2-(1,3,4-thiadiazol-2-yl)isoindole-1,3-dione]	> 100 µM
O=C(Cn1cnc2ccccc21)c1ccc(O)c(O)c1 [2-(1-benzimidazolyl)-1-(3,4-dihydroxyphenyl)ethanone;hydrochloride]	14.8 µM
O=C1c2ccccc2C(=O)N1c1nnc[nH]1 [2-(1H-1,2,4-triazol-5-yl)isoindole-1,3-dione]	> 100 µM
Cc1cc(C)nc(SCC(=O)c2ccc(O)cc2)n1 [2-(4,6-dimethylpyrimidin-2-ylthio)-1-(4-hydroxyphenyl)ethanone]	> 100 µM
COc1ccc(C(=O)CSc2nc(C)cc(C)n2)cc1 [2-(4,6-dimethylpyrimidin-2-ylthio)-1-(4-methoxyphenyl)ethanone]	> 100 µM
Oc1c2c(c(O)n1-c1nnc(-c3ccccc3)[nH]1)CC=CC2 [2-(5-Phenyl-2H-[1,2,4]triazol-3-yl)-3a,4,7,7a-tetrahydro-isoindole-1,3-dione]	0.11 µM and 0.157 µM
COc1ccc(C)cc1S(=O)(=O)Nc1cccnc1 [2-Methoxy-5-methyl-N-(pyridin-3-yl)benzenesulfonamide]	> 100 µM
COc1ccc(C)cc1S(=O)(=O)Nc1cnc2ccccc2c1 [2-Methoxy-5-methyl-N-(quinolin-3-yl)benzenesulfonamide]	> 100 µM
CCn1c(CSc2nc3ccccc3s2)nnc1SCC(=O)c1ccc(O)c(O)c1 [2-[[5-(1,3-benzothiazol-2-ylsulfanylmethyl)-4-ethyl-1,2,4-triazol-3-yl]sulfanyl]-1-(3,4-dihydroxyphenyl)ethanone]	> 100 µM
COc1ccc(C)cc1S(=O)(=O)Nc1ccc2ccccc2c1 [2-methoxy-5-methyl-N-(2-naphthalenyl)benzenesulfonamide]	> 100 µM
O=C(O)c1cc(-c2ccccc2Cl)n[nH]1 [3-(2-chlorophenyl)-1H-pyrazole-5-carboxylic acid]	43.4 µM

Compound	IC50
O=C1c2c(Cl)c(Cl)c(Cl)c(Cl)c2C(=O)N1c1nnc[nH]1 [4,5,6,7-tetrachloro-2-(1H-1,2,4-triazol-5-yl)isoindole-1,3-dione]	> 10 µM
Cn1nc(C(=O)O)cc1-c1ccc(F)cc1 [5-(4-fluorophenyl)-1-methyl-3-pyrazolecarboxylic acid]	> 100 µM
Cn1nc(-c2ccc(F)cc2)cc1C(=O)O [5-(4-fluorophenyl)-2-methyl-3-pyrazolecarboxylic acid]	> 100 µM
CCOc1ccc(Cl)cc1S(=O)(=O)Nc1cccnc1 [5-chloro-2-ethoxy-N-(pyridin-3-yl)benzenesulfonamide]	> 100 µM
COc1cc(C)c(Cl)cc1S(=O)(=O)Nc1cccnc1 [5-chloro-2-methoxy-4-methyl-N-(pyridin-3-yl)benzenesulfonamide]	> 100 µM
O=C(c1[nH]nc2c1COc1ccccc1-2)N1CCCC1 [(2,4-dihydrochromeno[4,3-c]pyrazol-3-yl)(pyrrolidin-1-yl)methanone]	> 100 µM
O=C1Nc2ccccc2C1C=NCCc1ccc(O)c(O)c1 (configuration not stated) [(3E)-3-[[2-(3,4-dihydroxyphenyl)ethylamino]methylene]oxindole]	9.95 µM
Oc1c2c(c(O)n1-c1nnc(Cc3ccccc3)[nH]1)CC=CC2 [MLS000100008]	0.539 µM and 0.922 µM
Cc1cc(=O)oc2n[nH]c(-c3ccccc3)c12 [MLS-0013971.0001]	> 100 µM
Oc1cc(-c2cccc3ccccc23)[nH]n1 [MLS-0067141.0001]	> 100 µM
COC(=O)c1cc(-c2ccc(OC)cc2)[nH]n1 [MLS-0091975.0001]	> 100 µM
COC(=O)c1cc(-c2ccc3ccccc3c2)[nH]n1 [MLS-0111546.0001]	> 100 µM
CCOC(=O)c1cc(-c2ccc(Cl)cc2)n[nH]1 [MLS-0111582.0001]	> 100 µM
O=C1c2c(Cl)c(Cl)c(Cl)c(Cl)c2C(=O)N1c1nc(Cc2ccccc2)n[nH]1 [MLS-0146263.0001]	> 100 µM
COc1ccc2c(c1OC)C(=O)N(c1nnc(SC)[nH]1)C2=O [MLS-0146265.0001]	> 100 µM
CCc1nnc(SCC(=O)c2ccc(O)c(O)c2)[nH]1 [MLS-0315685.0001]	1.27 µM
CCCCOc1ccc(-c2cc(C(=O)OC)[nH]n2)cc1 [methyl 3-(4-butoxyphenyl)-1H-pyrazole-5-carboxylate]	> 100 µM
COC(=O)c1cc(-c2ccccc2)n[nH]1 [methyl 3-phenyl-1H-pyrazole-5-carboxylate]	> 100 µM

Same assay, conditions: inactive by the depositor's call

Compound	IC50
CCn1c(SCC(=O)c2ccc(O)c(O)c2)nnc1-c1ccccc1 [1-(3,4-Dihydroxy-phenyl)-2-(4-ethyl-5-phenyl-4H-[1,2,4]triazol-3-ylsulfanyl)-ethanone]	32.8 µM

Source: BindingDB's records for doi:10.7270/Q2JQ0ZDS (Sanford-Burnham Center for Chemical Genomics, 2009)
